# Test results from ChEMBL document CHEMBL3526052 (Drug Metab Dispos, 2013).
# How the values were obtained:
# [1] = target: T1, Sodium/nucleoside cotransporter 1 (Homo sapiens, UniProt O00337); assay: Binding affinity to recombinant human CNT1 expressed in Saccharomyces cerevisiae assessed as inhibition of [3H]-uridine transport after 15 mins by scintillation counting analysis; format: ADME; details: for Ki: read-out: Ki(app)
# T1 sequence (O00337 whole entry): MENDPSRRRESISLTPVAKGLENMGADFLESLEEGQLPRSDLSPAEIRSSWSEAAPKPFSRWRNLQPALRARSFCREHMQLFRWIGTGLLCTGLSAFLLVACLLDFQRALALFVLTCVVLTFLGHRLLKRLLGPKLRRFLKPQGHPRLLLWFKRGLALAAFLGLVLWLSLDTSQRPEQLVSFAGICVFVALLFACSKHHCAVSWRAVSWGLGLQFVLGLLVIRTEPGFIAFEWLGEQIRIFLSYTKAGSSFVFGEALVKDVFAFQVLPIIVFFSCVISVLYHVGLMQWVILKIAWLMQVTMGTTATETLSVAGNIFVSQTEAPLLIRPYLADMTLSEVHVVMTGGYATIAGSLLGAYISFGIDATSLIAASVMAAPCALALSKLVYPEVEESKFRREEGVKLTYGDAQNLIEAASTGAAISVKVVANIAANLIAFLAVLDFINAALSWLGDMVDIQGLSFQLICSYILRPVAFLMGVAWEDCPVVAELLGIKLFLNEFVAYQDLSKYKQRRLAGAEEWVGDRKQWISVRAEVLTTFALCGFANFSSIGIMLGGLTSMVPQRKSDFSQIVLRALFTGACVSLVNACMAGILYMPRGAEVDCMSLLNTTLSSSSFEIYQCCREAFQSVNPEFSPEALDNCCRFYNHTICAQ
# [2] = target: T2, Equilibrative nucleoside transporter 2 (Homo sapiens, UniProt Q14542); assay: Binding affinity to recombinant human ENT2 expressed in Saccharomyces cerevisiae assessed as inhibition of [3H]-uridine transport after 15 mins by scintillation counting analysis; format: ADME; details: for Ki: read-out: Ki(app)
# T2 sequence (Q14542 whole entry): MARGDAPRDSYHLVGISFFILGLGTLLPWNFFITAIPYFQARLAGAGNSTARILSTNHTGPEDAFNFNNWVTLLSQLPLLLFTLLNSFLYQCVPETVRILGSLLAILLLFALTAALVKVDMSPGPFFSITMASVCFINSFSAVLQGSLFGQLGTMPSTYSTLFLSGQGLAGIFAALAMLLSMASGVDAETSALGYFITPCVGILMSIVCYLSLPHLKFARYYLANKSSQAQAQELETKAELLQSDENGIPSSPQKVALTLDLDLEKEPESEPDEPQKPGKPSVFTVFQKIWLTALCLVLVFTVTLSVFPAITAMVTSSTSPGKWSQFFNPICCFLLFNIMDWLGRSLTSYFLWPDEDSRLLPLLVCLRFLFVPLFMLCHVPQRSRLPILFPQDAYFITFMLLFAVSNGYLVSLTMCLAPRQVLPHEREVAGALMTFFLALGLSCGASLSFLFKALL
# [3] = target: T3, Equilibrative nucleoside transporter 1 (Homo sapiens, UniProt Q99808); assay: Binding affinity to recombinant human ENT1 expressed in Saccharomyces cerevisiae assessed as inhibition of [3H]-uridine transport after 15 mins by scintillation counting analysis; format: ADME; details: for Ki: read-out: Ki(app)
# T3 sequence (Q99808 whole entry): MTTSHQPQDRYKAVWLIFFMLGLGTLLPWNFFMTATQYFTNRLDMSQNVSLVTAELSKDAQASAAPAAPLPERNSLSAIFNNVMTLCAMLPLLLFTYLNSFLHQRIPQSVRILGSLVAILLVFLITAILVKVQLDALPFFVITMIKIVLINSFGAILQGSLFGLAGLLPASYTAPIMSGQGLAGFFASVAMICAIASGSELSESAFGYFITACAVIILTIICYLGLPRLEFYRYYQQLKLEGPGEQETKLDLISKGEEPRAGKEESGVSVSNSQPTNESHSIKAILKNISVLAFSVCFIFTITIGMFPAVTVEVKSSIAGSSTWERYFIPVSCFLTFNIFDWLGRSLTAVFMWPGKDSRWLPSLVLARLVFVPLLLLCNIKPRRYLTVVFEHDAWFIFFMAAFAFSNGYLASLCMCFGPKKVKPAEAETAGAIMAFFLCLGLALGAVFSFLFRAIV
# [4] = target: T4, Sodium/nucleoside cotransporter 2 (Homo sapiens, UniProt O43868); assay: Binding affinity to recombinant human CNT2 expressed in Saccharomyces cerevisiae assessed as inhibition of [3H]-uridine transport after 15 mins by scintillation counting analysis; format: ADME; details: for Ki: read-out: Ki(app)
# T4 sequence (O43868 whole entry): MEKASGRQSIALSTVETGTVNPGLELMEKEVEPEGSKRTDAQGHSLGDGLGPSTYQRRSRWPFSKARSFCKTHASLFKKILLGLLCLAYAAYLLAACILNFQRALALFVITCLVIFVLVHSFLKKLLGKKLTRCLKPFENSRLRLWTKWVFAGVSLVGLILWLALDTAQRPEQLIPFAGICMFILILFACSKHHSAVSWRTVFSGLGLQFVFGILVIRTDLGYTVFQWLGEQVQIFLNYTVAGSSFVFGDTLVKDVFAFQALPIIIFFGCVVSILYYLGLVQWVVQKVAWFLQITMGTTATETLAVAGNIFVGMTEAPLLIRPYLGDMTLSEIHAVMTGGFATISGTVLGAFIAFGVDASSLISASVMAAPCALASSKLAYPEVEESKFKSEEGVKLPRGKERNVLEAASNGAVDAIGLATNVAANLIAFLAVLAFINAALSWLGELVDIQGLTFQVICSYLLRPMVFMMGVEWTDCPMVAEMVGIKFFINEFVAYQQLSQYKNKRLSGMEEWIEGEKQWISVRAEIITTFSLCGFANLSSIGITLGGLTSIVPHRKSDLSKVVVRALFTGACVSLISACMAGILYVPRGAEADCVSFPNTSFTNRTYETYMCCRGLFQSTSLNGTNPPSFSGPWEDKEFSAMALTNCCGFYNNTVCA
# [5] = target: T5, Solute carrier family 28 member 3 (Homo sapiens, UniProt Q9HAS3); assay: Binding affinity to recombinant human CNT3 expressed in Saccharomyces cerevisiae assessed as inhibition of [3H]-uridine transport after 5 mins by scintillation counting analysis; format: ADME; details: for Ki: read-out: Ki(app)
# T5 sequence (Q9HAS3 whole entry): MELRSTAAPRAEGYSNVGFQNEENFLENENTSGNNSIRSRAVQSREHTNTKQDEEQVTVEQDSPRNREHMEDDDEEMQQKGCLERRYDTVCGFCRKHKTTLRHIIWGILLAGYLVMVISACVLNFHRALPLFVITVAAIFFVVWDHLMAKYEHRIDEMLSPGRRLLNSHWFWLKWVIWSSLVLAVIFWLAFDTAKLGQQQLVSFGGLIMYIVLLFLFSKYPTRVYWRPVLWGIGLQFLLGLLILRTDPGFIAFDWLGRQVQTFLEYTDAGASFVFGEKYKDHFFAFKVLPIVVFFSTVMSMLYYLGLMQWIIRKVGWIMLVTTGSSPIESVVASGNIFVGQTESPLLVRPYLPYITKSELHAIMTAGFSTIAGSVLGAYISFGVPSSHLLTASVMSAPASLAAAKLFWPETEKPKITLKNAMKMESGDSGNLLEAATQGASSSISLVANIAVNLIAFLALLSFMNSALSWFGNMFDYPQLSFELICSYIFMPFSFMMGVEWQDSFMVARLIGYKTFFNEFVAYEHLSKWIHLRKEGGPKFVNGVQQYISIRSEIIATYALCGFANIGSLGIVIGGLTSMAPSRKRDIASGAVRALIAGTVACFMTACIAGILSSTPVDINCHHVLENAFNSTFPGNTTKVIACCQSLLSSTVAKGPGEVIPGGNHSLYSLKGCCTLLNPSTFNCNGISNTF
# [6] = AUC (0 to infinity) in CD-1 mouse at 0.1 mg/kg, iv administered as bolus dose in absence of ENT1 inhibitor NBMPR-P; format: ADME, organism-based; design: time infinity, dose 0.1 mg/kg, route intravenous; details: plasma
# Brain [7] = assay: AUC (0 to 4 hrs) in CD-1 mouse brain at 0.1 mg/kg, iv administered as bolus dose in presence of ENT1 inhibitor NBMPR-P; format: ADME, organism-based; design: time < 4 hr, dose 0.1 mg/kg, route intravenous; details: in vivo
# [8] = Apparent volume of distribution at steady state in CD-1 mouse at 0.1 mg/kg, iv administered as bolus dose in absence of ENT1 inhibitor NBMPR-P; format: ADME, organism-based; design: dose 0.1 mg/kg, route intravenous; details: in vivo, read-out: Vdss(app)
# Xenopus laevis = species on record: Xenopus laevis; assay: Drug uptake in water-injected Xenopus laevis oocytes up to 1 mM measured per 2 mins; format: ADME, organism-based; details: in vivo
# [9] = Tmax in CD-1 mouse brain at 0.1 mg/kg, iv administered as bolus dose in absence of ENT1 inhibitor NBMPR-P; format: ADME, organism-based; design: dose 0.1 mg/kg, route intravenous
# [10] = target: T6, ENT1 (equilibrative nucleoside transporter 1) (Homo sapiens, UniProt Q99808); assay: Drug transport in Xenopus laevis oocytes assessed as recombinant human ENT1-mediated uptake up to 1 mM by Michaelis-Menten equation analysis; format: ADME, cell-based; details: Xenopus laevis oocytes expressing recombinant human ENT1, read-out: Km(app)
# T6 sequence (Q99808 whole entry): T3 sequence (Q99808 whole entry)
# [11] = target: T3, Equilibrative nucleoside transporter 1; assay: Drug transport in human CCRF-CEM cells assessed as ENT1-mediated uptake measured per 10^6 cells after 5 secs by Michaelis-Menten equation analysis; format: ADME, cell-based; details: 5 s
# [12] = Cmax in CD-1 mouse brain at 0.1 mg/kg, iv administered as bolus dose in presence of ENT1 inhibitor NBMPR-P; format: ADME, organism-based; design: dose 0.1 mg/kg, route intravenous
# [13] = Apparent volume of distribution at steady state in CD-1 mouse at 0.1 mg/kg, iv administered as bolus dose in presence of ENT1 inhibitor NBMPR-P; format: ADME, organism-based; design: dose 0.1 mg/kg, route intravenous; details: in vivo, read-out: Vdss(app)
# [14] = target: T6, ENT1 (equilibrative nucleoside transporter 1); assay: Drug transport in human CCRF-CEM cells assessed as ENT1-mediated uptake after 5 secs by Michaelis-Menten equation analysis; format: ADME, cell-based
# [15] = Cmax in CD-1 mouse brain at 0.1 mg/kg, iv administered as bolus dose in absence of ENT1 inhibitor NBMPR-P; format: ADME, organism-based; design: dose 0.1 mg/kg, route intravenous
# [16] = Elimination half life in CD-1 mouse at 0.1 mg/kg, iv administered as bolus dose in absence of ENT1 inhibitor NBMPR-P; format: ADME, organism-based; design: dose 0.1 mg/kg, route intravenous; details: in vivo, read-out: beta t1/2 (converted)
# [17] = target: T3, Equilibrative nucleoside transporter 1; assay: Drug transport in Xenopus laevis oocytes assessed as recombinant human ENT1-mediated uptake up to 1 mM measured per 2 mins by Michaelis-Menten equation analysis; format: ADME, cell-based
# Brain [18] = assay: AUC (0 to 4 hrs) in CD-1 mouse brain at 0.1 mg/kg, iv administered as bolus dose in absence of ENT1 inhibitor NBMPR-P; format: ADME, organism-based; design: time < 4 hr, dose 0.1 mg/kg, route intravenous; details: in vivo
# [19] = AUC (0 to infinity) in CD-1 mouse at 0.1 mg/kg, iv administered as bolus dose in presence of ENT1 inhibitor NBMPR-P; format: ADME, organism-based; design: time infinity, dose 0.1 mg/kg, route intravenous; details: plasma
# [20] = Tmax in CD-1 mouse brain at 0.1 mg/kg, iv administered as bolus dose in presence of ENT1 inhibitor NBMPR-P; format: ADME, organism-based; design: dose 0.1 mg/kg, route intravenous
# [21] = Elimination half life in CD-1 mouse at 0.1 mg/kg, iv administered as bolus dose in presence of ENT1 inhibitor NBMPR-P; format: ADME, organism-based; design: dose 0.1 mg/kg, route intravenous; details: in vivo, read-out: beta t1/2 (converted)
SMILES,IC50 [1] [µM],Ki [1] [µM],IC50 [2] [µM],Ki [2] [µM],IC50 [3] [µM],Ki [3] [µM],IC50 [4] [µM],Ki [4] [µM],IC50 [5] [µM],Ki [5] [µM],also measured
O=c1ccn([C@@H]2O[C@H](CO)[C@@H](O)[C@H]2O)c(=O)[nH]1 [URIDINE],5.8,5.2,234,242,52,51,32,31,5.4,3.4,
OC[C@H]1O[C@@H](n2cnc3c(N[C@@H]4CCOC4)ncnc32)[C@H](O)[C@@H]1O [TECADENOSON],41,37,190,189,12,11,239,231,200,126,AUC(0-inf) [6]: 16.4 ng·h/mL; AUC (Brain [7]): 7 ng·h/g; Vd [8]: 2.8 L/kg; Drug uptake (Xenopus laevis): 5 pmol; Tmax [9]: 6.6 min; Km [10]: 196 µM; Vmax [11]: 3.4 pmol; Cmax [12]: 4 ng/g; Vd [13]: 2.2 L/kg; Km at 5 s [14]: 24 µM; Cmax [15]: 23 ng/g; half-life [16]: 42 min; Vmax [17]: 46.7 pmol; AUC (Brain [18]): 22 ng·h/g; AUC(0-inf) [19]: 50.5 ng·h/mL; Tmax [20]: 11.4 min; half-life [21]: 66 min
